# Assay results: patent US12338256B2, “Aza-tetracyclic oxazepine compounds and uses thereof” (Genentech, Inc., priority 2022, dated 2025)
# Legend:
# [1] = test system: HPAC (homozygous mutant KRAS G12D human pancreatic cell line); experiment: KRAS 3D-Cell Proliferation Assay, HPAC (Example 503); type: cell-based; settings: Homo sapiens, HPAC, 168 h, HPAC 3D culture, 7 days, CellTiter-Glo 3D; read-out: Prolif HPAC 3D ATP IC50
# How it was run: (§1)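 IC50 values derive from 4-parameter Hill fits of normalized luminescence, where DMSO sets 0% and 1 μM staurosporine 100% inhibition. 3D cultures in RPMI-1640 with 10% fetal bovine serum were exposed to compound for 7 days before CellTiter-Glo 3D lysis.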
# [2] = test system: H1975 (KRAS wild type human lung adenocarcinoma cell line); experiment: KRAS 3D-Cell Proliferation Assay, H1975 (Example 503); type: cell-based; settings: Homo sapiens, NCI-H1975, 168 h, H1975 3D culture, 7 days, CellTiter-Glo 3D; read-out: Prolif H1975 3D ATP IC50
# How it was run: as §1
SMILES,IC50 [1],IC50 [2]
"Cc1nc(N)cc(-c2nc3c4c(nc(OCC5(CN6CCO[C@H](C)C6)CC5)nc4c2F)N2C[C@H]4CC[C@H](N4)[C@H]2[C@H](C)O3)c1C(F)(F)F [Compound 213, 4-((5S,5aS,6S,9R)-1-Fluoro-5-methyl-12-((1-(((R)-2-methylmorpholino)methyl)cyclopropyl)methoxy)-5a,6,7,8,9,10-hexahydro-5H-4-oxa-3,10a,11,13,14-pentaaza-6,9-methanonaphtho[1,8-ab]heptalen-2-yl)-6-methyl-5-(trifluoromethyl)pyridin-2-amine]",1.25 nM,295 nM
"Cc1nc(N)cc(-c2nc3c4c(nc(OC[C@]56CCCN5CC(F)(F)C6)nc4c2F)N2C[C@H]4CC[C@H](N4)[C@H]2[C@H](C)O3)c1C(F)(F)F [Compound 217, 4-((5S,5aS,6S,9R)-12-(((R)-2,2-difluorotetrahydro-1H-pyrrolizin-7a(5H)-yl)methoxy)-1-fluoro-5-methyl-5a,6,7,8,9,10-hexahydro-5H-4-oxa-3,10a,11,13,14-pentaaza-6,9-methanonaphtho[1,8-ab]heptalen-2-yl)-6-methyl-5-(trifluoromethyl)pyridin-2-amine]",38.8 nM,12600 nM
"Cc1nc(N)cc(-c2nc3c4c(nc(OCC5(CN6C[C@@H](C)O[C@@H](C)C6)CC5)nc4c2F)N2C[C@H]4CC[C@H](N4)[C@H]2[C@H](C)O3)c1C(F)(F)F [Compound 218, 4-((5S,5aS,6S,9R)-12-((1-(((2R,6S)-2,6-Dimethylmorpholino)methyl)cyclopropyl)methoxy)-1-fluoro-5-methyl-5a,6,7,8,9,10-hexahydro-5H-4-oxa-3,10a,11,13,14-pentaaza-6,9-methanonaphtho[1,8-ab]heptalen-2-yl)-6-methyl-5-(trifluoromethyl)pyridin-2-amine]",1.36 nM,384 nM
"Cc1nc(N)c(F)c(-c2nc3c4c(nc(OCC5(CN6CCOCC6)CC5)nc4c2F)N2C[C@H]4CC[C@H](N4)[C@H]2[C@H](C)O3)c1C(F)(F)F [Compound 219, 3-Fluoro-4-((5S,5aS,6S,9R)-1-fluoro-5-methyl-12-((1-(morpholinomethyl)cyclopropyl)methoxy)-5a,6,7,8,9,10-hexahydro-5H-4-oxa-3,10a,11,13,14-pentaaza-6,9-methanonaphtho[1,8-ab]heptalen-2-yl)-6-methyl-5-(trifluoromethyl)pyridin-2-amine]",3.67 nM,8280 nM
"Cc1nc(N)c(F)c(-c2nc3c4c(nc(OCC56CCN5CC(F)(F)C6)nc4c2F)N2C[C@H]4CC[C@H](N4)[C@H]2[C@H](C)O3)c1C(F)(F)F (stereo partly drawn) [Compound 220, 4-((5S,5aS,6S,9R)-12-((3,3-Difluoro-1-azabicyclo[3.2.0]heptan-5-yl)methoxy)-1-fluoro-5-methyl-5a,6,7,8,9,10-hexahydro-5H-4-oxa-3,10a,11,13,14-pentaaza-6,9-methanonaphtho[1,8-ab]heptalene-2-yl)-3-fluoro-6-methyl-5-(trifluoromethyl)pyridin-2-amine]",11.8 nM,20000 nM
"Cc1nc(N)c(F)c(-c2nc3c4c(nc(OCC5(CN6C[C@@H]7C[C@H]6CO7)CC5)nc4c2F)N2C[C@H]4CC[C@H](N4)[C@H]2[C@H](C)O3)c1C(F)(F)F [Compound 222, 4-((5S,5aS,6S,9R)-12-((1-(((1S,4S)-2-Oxa-5-azabicyclo[2.2.1]heptan-5-yl)methyl)cyclopropyl)methoxy)-1-fluoro-5-methyl-5a,6,7,8,9,10-hexahydro-5H-4-oxa-3,10a,11,13,14-pentaaza-6,9-methanonaphtho[1,8-ab]heptalene-2-yl)-3-fluoro-6-methyl-5-(trifluoromethyl)pyridin-2-amine]",5.76 nM,1480 nM
"Cc1nc(N)c(F)c(-c2nc3c4c(nc(OCC5(CN6C[C@H]7C[C@@H]6CO7)CC5)nc4c2F)N2C[C@H]4CC[C@H](N4)[C@H]2[C@H](C)O3)c1C(F)(F)F [Compound 223, 4-((5S,5aS,6S,9R)-12-((1-(((1R,4R)-2-Oxa-5-azabicyclo[2.2.1]heptan-5-yl)methyl)cyclopropyl)methoxy)-1-fluoro-5-methyl-5a,6,7,8,9,10-hexahydro-5H-4-oxa-3,10a,11,13,14-pentaaza-6,9-methanonaphtho[1,8-ab]heptalene-2-yl)-3-fluoro-6-methyl-5-(trifluoromethyl)pyridin-2-amine]",6.46 nM,1230 nM
"Cc1cc(N)c(F)c(-c2nc3c4c(nc(OC[C@@]56CCCN5CC5(CC5(F)F)C6)nc4c2F)N2C[C@H]4CC[C@H](N4)[C@H]2[C@H](C)O3)c1C(F)(F)F (stereo partly drawn) [Compound 227, 3-((5S,5aS,6S,9R)-12-(((7a′S)-2,2-Difluorodihydro-1′H,3′H-spiro[cyclopropane-1,2′-pyrrolizin]-7a′(5′H)-yl)methoxy)-1-fluoro-5-methyl-5a,6,7,8,9,10-hexahydro-5H-4-oxa-3,10a,11,13,14-pentaaza[6,9]methanonaphtho[1,8-ab]heptalene-2-yl)-2-fluoro-5-methyl-4-(trifluoromethyl)aniline]",0.516 nM,679 nM
"Cc1c(F)c(N)c(F)c(-c2nc3c4c(nc(OC[C@@H]5C[C@@H](F)CN5C)nc4c2F)N2C[C@H]4CC[C@H](N4)[C@H]2[C@H](C)O3)c1C(F)(F)F [Compound 228, 2,6-Difluoro-3-((5S,5aS,6S,9R)-1-fluoro-12-(((2S,4R)-4-fluoro-1-methylpyrrolidin-2-yl)methoxy)-5-methyl-5a,6,7,8,9,10-hexahydro-5H-4-oxa-3,10a,11,13,14-pentaaza-6,9-methanonaphtho[1,8-ab]heptalen-2-yl)-5-methyl-4-(trifluoromethyl)aniline]",2000 nM,20000 nM
"Cc1c(F)c(N)c(F)c(-c2nc3c4c(nc(OC[C@@]56CCCN5C/C(=C\F)C6)nc4c2F)N2C[C@H]4CC[C@H](N4)[C@H]2[C@H](C)O3)c1C(F)(F)F [Compound 229, 2,6-Difluoro-3-((5S,5aS,6S,9R)-1-fluoro-12-(((S,Z)-2-(fluoromethylene)tetrahydro-1H-pyrrolizin-7a(5H)-yl)methoxy)-5-methyl-5a,6,7,8,9,10-hexahydro-5H-4-oxa-3,10a,11,13,14-pentaaza-6,9-methanonaphtho[1,8-ab]heptalene-2-yl)-5-methyl-4-(trifluoromethyl)aniline]",1.82 nM,639 nM
"Cc1cc(N)cc(-c2nc3c4c(nc(OC[C@@H]5CC[C@H]6COCCN65)nc4c2F)N2C[C@H]4CC[C@H](N4)[C@H]2[C@H](C)O3)c1CC(F)F [Compound 230, 4-(2,2-Difluoroethyl)-3-((5S,5aS,6S,9R)-1-fluoro-12-(((6S,8aS)-hexahydro-1H-pyrrolo[2,1-c][1,4]oxazin-6-yl)methoxy)-5-methyl-5a,6,7,8,9,10-hexahydro-5H-4-oxa-3,10a,11,13,14-pentaaza-6,9-methanonaphtho[1,8-ab]heptalen-2-yl)-5-methylaniline]",28.4 nM,5840 nM
"Cc1cc(N)c(F)c(-c2nc3c4c(nc(OC[C@@H]5CC[C@H]6COCCN65)nc4c2F)N2C[C@H]4CC[C@H](N4)[C@H]2[C@H](C)O3)c1CC(F)F [Compound 231, 4-(2,2-Difluoroethyl)-2-fluoro-3-((5S,5aS,6S,9R)-1-fluoro-12-(((6S,8aS)-hexahydro-1H-pyrrolo[2,1-c][1,4]oxazin-6-yl)methoxy)-5-methyl-5a,6,7,8,9,10-hexahydro-5H-4-oxa-3,10a,11,13,14-pentaaza-6,9-methanonaphtho[1,8-ab]heptalen-2-yl)-5-methylaniline]",39.8 nM,13200 nM
"CCc1c(F)c(N)cc(-c2nc3c4c(nc(OC[C@@H]5CC[C@H]6COCCN65)nc4c2F)N2C[C@H]4CC[C@H](N4)[C@H]2[C@H](C)O3)c1C(F)(F)F [Compound 232, 3-Ethyl-2-fluoro-5-((5S,5aS,6S,9R)-1-fluoro-12-(((6S,8aS)-hexahydro-1H-pyrrolo[2,1-c][1,4]oxazin-6-yl)methoxy)-5-methyl-5a,6,7,8,9,10-hexahydro-5H-4-oxa-3,10a,11,13,14-pentaaza-6,9-methanonaphtho[1,8-ab]heptalen-2-yl)-4-(trifluoromethyl)aniline]",77 nM,10500 nM
"C[C@@H]1Oc2nc(-c3cc(N)c(F)c(C4CC4)c3C(F)(F)F)c(F)c3nc(OC[C@@H]4CC[C@H]5COCCN54)nc(c23)N2C[C@H]3CC[C@H](N3)[C@@H]12 [Compound 233, 3-Cyclopropyl-2-fluoro-5-((5S,5aS,6S,9R)-1-fluoro-12-(((6S,8aS)-hexahydro-1H-pyrrolo[2,1-c][1,4]oxazin-6-yl)methoxy)-5-methyl-5a,6,7,8,9,10-hexahydro-5H-4-oxa-3,10a,11,13,14-pentaaza-6,9-methanonaphtho[1,8-ab]heptalen-2-yl)-4-(trifluoromethyl)aniline]",2000 nM,5400 nM
"Cc1c(F)c(N)cc(-c2nc3c4c(nc(OC[C@@]56CCCN5C[C@H](F)C6)nc4c2F)N2C[C@H]4CC[C@H](NC4)[C@H]2CO3)c1C(F)(F)F [Compound 236, 2-Fluoro-5-((5aS,6S,9S)-1-fluoro-12-(((2R,7aS)-2-fluorotetrahydro-1H-pyrrolizin-7a(5H)-yl)methoxy)-5a,6,7,8,9,10-hexahydro-5H-4-oxa-3,10a,11,13,15-pentaaza-6,9-ethanonaphtho[1,8-ab]heptalene-2-yl)-3-methyl-4-(trifluoromethyl)aniline]",2000 nM,14500 nM
"Cc1c(F)c(N)cc(-c2nc3c4c(nc(OC[C@@]56CCCN5C[C@H](F)C6)nc4c2F)N2C[C@H]4CC[C@H](N4)[C@H]2C(CF)O3)c1C(F)(F)F (stereo partly drawn) [Compound 239, 2-Fluoro-5-((5aS,6S,9R)-1-fluoro-5-(fluoromethyl)-12-(((2R,7aS)-2-fluorotetrahydro-1H-pyrrolizin-7a(5H)-yl)methoxy)-5a,6,7,8,9,10-hexahydro-5H-4-oxa-3,10a,11,13,14-pentaaza-6,9-methanonaphtho[1,8-ab]heptalen-2-yl)-3-methyl-4-(trifluoromethyl)aniline]",33.4 nM,569 nM
